The record followed here is article PMC12073635, “Synthesis of Tricyclic and Tetracyclic Lactone Derivatives of Thieno[2,3-b]pyrazine or Thieno[2,3-b]quinoline: Preliminary Antitumor and Antiparasitic Activity Evaluation” (Molecules, 2025).

A word on the IC50: it is the concentration needed to halve the response being measured. A high value points to weaker potency. The GI50 is the concentration at which growth is held to half of that of the control. The CC50 is the concentration giving 50% cytotoxicity.

Each structure is given as a SMILES string. Some results are limits rather than exact numbers.

The test system of data set [1] is L. infantum MHOM/MA/67/ITMAP-263 promastigotes. Nature of the data set: Resazurin-based assay against L. infantum promastigotes. To be noted: Leishmania infantum, 72 h, dose-response. It is filed as cell-based, Leishmania infantum. As for the experimental part: The antiparasitic activity of compounds 2c–g, 3a, 5a and 7 was evaluated at a single concentration of 20 μM, against Trypanosoma brucei (T. brucei) and Leishmania infantum (L. infantum) promastigotes. The results are shown in Table 9 together with the cytotoxicity data (CC50) in THP-1–derived macrophages cells.
L. infantum MHOM/MA/67/ITMAP-263 promastigotes forms were grown at 27 °C, in complete RPMI-1640 medium supplemented with 10% heat-inactivated Fetal Bovine Serum (FBS), 2 mM L-glutamine, 100 UI/mL penicillin/streptomycin, 20 mM HEPES. Parasites maintenance was performed in T25 non-ventilated flasks by subpassage at a concentration of 1 × 10^6/mL every 5 days on T25 non-ventilated flasks.
The compounds’ efficacy against L. infantum promastigotes was evaluated using a resazurin-based assay. Parasites were added to 100 µL of serial dilutions of compounds in supplemented complete medium at a cell density of 5 × 10^5/mL. As a quality control, a dose–response curve to the antileishmanial drug miltefosine was included in all the assays. The final volume of the assay was 200 µL/well. Each condition was carried out in duplicate. Following 72 h of incubation at the specific conditions for L. infantum, 20 µL of a 0.5 mM resazurin solution was added, and the plates were incubated for a further 4 h under the same conditions. The methodology to obtain the results was the same described in Section 3.2.2. for T. brucei.

A short description of data set [2]: SRB assay, toxicity in non-tumor PLP2 cells. The format is cell-based, pig. To be noted: PLP2 primary pig liver cells (non-tumor); non-tumor primary pig liver cells, SRB assay, 72 h, mean ± standard deviation.
In data set [3] the test system is PLP2 (primary pig liver cell culture). Briefly: SRB assay, toxicity in non-tumor PLP2 cells. It is filed as cell-based. The note with it: at the GI50 concentrations. A general note: Sulforhodamine B stains cellular protein and so reports cell mass.
In data set [4] the test system is NCI-H460 (non-small cell lung cancer) cells. Nature of the data set: SRB cell growth inhibition assay, NCI-H460. The format is cell-based. The note with it: Homo sapiens, 72 h, mean ± standard deviation.
The nature of data set [5]: MTT cytotoxicity in THP-1-derived macrophages. It is filed as cell-based, human. To be noted: human, THP-1-derived macrophages (PMA-differentiated); MTT, 72 h, tested 100 to 12.5 μM; read-out: CC50 Interval in THP-1-Derived Macrophages. Summed up: (§1)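 THP-1 cells differentiated into macrophages with 40 ng/mL PMA for 24 h plus 24 h in fresh medium, then exposed to compounds at 100 to 12.5 μM for 72 h at 37 °C, 5% CO2. Viability by MTT (0.5 mg/mL, 4 h), absorbance 570 nm; CC50 by non-linear regression, at least three independent experiments.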

Data set [6] concerns THP-1-derived macrophages. Briefly: MTT cytotoxicity in THP-1-derived macrophages. The format is cell-based, human. Summed up: as §1

Regarding `COC(=O)c1sc2nccnc2c1C#Cc1ccccn1` [Compound 2f, Methyl 7-(pyridin-2-ylethynyl)thieno[2,3-b]pyrazine-6-carboxylate], the IC50 in data set [1] came out at 16 µM. In data set [2], the GI50 at 72 h worked out at 57.9 ± 4.31 µM. In data set [3], the “toxicity in PLP2 cells (in words)” value is on record as “without significant toxicity”. In data set [4], this compound had a GI50 of 9.33 ± 4.21 µM. The CC50 at 72 h in data set [5] lay in the range of 25 to 100 µM. Also, in data set [6], the “cytotoxicity in THP-1-derived macrophages (in words)” value is reported as “some level of toxicity”.
On to `O=c1oc(-c2ccccn2)cc2c1sc1nccnc12` [Compound 3f, 8-(Pyridin-2-yl)-6H-pyrano[4′,3′:4,5]thieno[2,3-b]pyrazin-6-one], for which the GI50 at 72 h in data set [2] was over 125 µM. Besides, in data set [3], the “toxicity in PLP2 cells (in words)” value is “low toxicity”. Further, in data set [4], halving of growth (GI50) required 61.2 ± 4.17 µM. The “cytotoxicity in THP-1-derived macrophages (in words)” value in data set [6] is reported as “some degree of cytotoxicity”.
